# Experimental data from publication PMC3199744, “Preformulation and stability in biological fluids of the retrocyclin RC-101, a potential anti-HIV topical microbicide” (AIDS Research and Therapy, 2011).
# Like-named read-outs stand apart in the source and are kept apart here.
# Tests used:
# [1] = RC-101 solution / film control in water, detection by LC-MS/MS; assay type: physicochemical; settings: 1:1 with water, 37°C, nanoLC-SRM MS, qualitative
# Experimental: RC-101 100 μg/mL solutions were prepared by dissolving RC-101 in Milli Q water. RC-101 and placebo films were prepared by precasting a polymeric film solution into an 8-well-plate. The polymeric film solution was prepared as previously described by adding Milli Q water, PVA, and hydroxypropyl methyl cellulose (HPMC). The solution was then heated at 95°C for 20 minutes for complete dissolution of the polymers. After cooling, glycerin and RC-101 were added. Film solution (2.4 g) containing RC-101 was poured into each well of the 8-well plate. The plate was placed into a vacuum oven at 30 ± 2°C for 20 ± 4 h. All dried films were removed from the plates and stored at room temperature in PET/Aluminum foil pouches (Amcor Flexibles Healthcare Inc, Mundelein, IL) until further analysis. Placebo films were prepared in the same way without the addition of RC-101. […] For analytical purposes, films were dissolved in 1 mL of Milli Q water before addition to HVF.
# (§1) The HVF from the Instead Softcup® was removed by centrifugation of the conical tube for 10 min at 5,000 rpm. […] HVF was then removed from the cup and the pH of each HVF sample was measured with Fisher Alkacid pH filter strips (Fisher Scientific). All samples collected on a specific day were pooled to be used for the research studies. If the pH of the individual samples was higher than 5, the sample was not included in the pool but it was stored at -80°C for separate analysis. If the sample contained blood, it was immediately discarded. Samples were prepared as described in Table 1. […] Because of its high viscosity, HVF was measured by weight and not by volume. All solutions were prepared fresh and incubated with HVF (or water) at 37°C for specific periods of time (0, 2, 6, 12, 24, 48, and 72 h), unless specified otherwise. At each time point, the samples were centrifuged at 10,000 rpm for 10 min to separate the supernatant from the epithelial cells as described in the cell processing section. Both parts (supernatant and cells) were stored at -80 ± C until analyzed by LC-MS/MS. To evaluate the influence of freezing the fluid prior to the analysis, the last pool of HVF was divided into two samples: one used fresh (at the time of collection), and the other one stored at -80°C for a 3-month period. After that time period, HVF was thawed and processed for blank and RC-101 solution only, as described in Table 1. HVF samples collected with a high pH value indicative of BV were stored at -80°C as previously mentioned. After confirmation of BV on those fluid samples by Gram stain score, the fluid samples (HVF BV^+) were thawed, pooled, and processed as described in Table 1.
# (§2) At each time point, the sample was removed from the incubation chamber and centrifuged for 10 min at 10,000 rpm, at 4 ± C to separate the supernatant from cell pellet. Supernatant (100 μL) was added to microcentrifuge filters Ultracel YM-10 Microcon MWCO 10,000 (Millipore Corporation, Bedford, MA), which were pre-washed with Milli Q water to eliminate any trace of propylene glycol from the filters. Samples were centrifuged twice for 15 min at 8,500 rpm, at 4 ± C. The filtrate was collected and frozen at -80 ± C until further analysis. A solution of 3 M urea was added to the cell pellet (1:1 w/w) obtained from the first centrifugation, to lyse the cells. This mixture was vortexed three times for 30 sec, and then centrifuged for 10 min at 10,000 rpm, at 4 ± C. The supernatant obtained from the cell lysate was then added to microcentrifuge filters Ultracel YM-10 Microcon MWCO 10,000 pre-washed with Milli Q water. Samples were centrifuged twice for 15 min at 8,500 rpm, at 4 ± C. The filtrate was collected and frozen at -80 ± C until analysis.
# [2] = for detection of RC-101 by LC-MS/MS: frozen HVF (-80°C, 3 months) 1:1, 37°C, nanoLC-SRM MS, qualitative
# Experimental: as §1
# as §2, with “until analysis. […] Samples were thawed and added to PepCleanTM C-18 spin columns (Pierce Biotechnology Inc., Rockford, IL) for desalting, after column conditioning with acetonitrile:water (50:50) and equilibration with 0.1% trifluoroacetic acid. The column was washed three times with 0.1% trifluoroacetic acid, and RC-101 was eluted with acetonitrile:water (60:40) in 0.1% trifluoroacetic acid. Samples were dried in a speed vacuum CentriVap concentrator (LabConco Corp., Kansas City, MO) and resuspended with 200 μL of Milli Q water for LC-MS/MS analysis. Each sample described in Table 1 originated two sets of samples: one labeled as supernatant and the second one labeled as cells.” for “until analysis.”
# Integrated electrospray ionization (ESI)-capillary reversed-phase columns (75 μm inner diameter × 360 μm outer diameter × 100 mm length) packed with 5 μm 300 Å pore size Jupiter C18 reversed-phase stationary phase (Phenomenex) were prepared, as previously described. Solvent flow was supplied by a nanoflow HPLC system (Ultimate 3000, Dionex Corporation, Sunnyvale, CA).
sequence,measurement,setting,value
GICRCICGKGICRCICGR (bicyclic or more) [RC-101],detection of RC-101 by LC-MS/MS,[1]; 0 h,+
same,detection of RC-101 by LC-MS/MS,[1]; 2 h,+
same,detection of RC-101 by LC-MS/MS,[1]; 6 h,+
same,detection of RC-101 by LC-MS/MS,[1]; 12 h,+
same,detection of RC-101 by LC-MS/MS,[1]; 24 h,+
same,detection of RC-101 by LC-MS/MS,[1]; 48 h,+
same,detection of RC-101 by LC-MS/MS,[1]; 72 h,+
same,difference in the peptide after incubation with frozen fluid versus fresh HVF,"[2]; HVF stored at -80°C for 3 months, thawed, 1:1 with RC-101 100 μg/mL solution, 37°C, LC-MS/MS not quantitative",No detectable differences
same,detection of RC-101 by LC-MS/MS,[2]; 0 h,+
same,detection of RC-101 by LC-MS/MS,[2]; 2 h,+
same,detection of RC-101 by LC-MS/MS,[2]; 6 h,+
same,detection of RC-101 by LC-MS/MS,[2]; 12 h,+
same,detection of RC-101 by LC-MS/MS,[2]; 24 h,+
same,detection of RC-101 by LC-MS/MS,[2]; 48 h,+
